Target: T1, bovine serum albumin (BSA) (Bos taurus, UniProt P02769)
T1 construct: gene ALB
Assay: intrinsic fluorescence quenching (eugenol […])
Assay type: binding

T1 sequence (P02769 25-607): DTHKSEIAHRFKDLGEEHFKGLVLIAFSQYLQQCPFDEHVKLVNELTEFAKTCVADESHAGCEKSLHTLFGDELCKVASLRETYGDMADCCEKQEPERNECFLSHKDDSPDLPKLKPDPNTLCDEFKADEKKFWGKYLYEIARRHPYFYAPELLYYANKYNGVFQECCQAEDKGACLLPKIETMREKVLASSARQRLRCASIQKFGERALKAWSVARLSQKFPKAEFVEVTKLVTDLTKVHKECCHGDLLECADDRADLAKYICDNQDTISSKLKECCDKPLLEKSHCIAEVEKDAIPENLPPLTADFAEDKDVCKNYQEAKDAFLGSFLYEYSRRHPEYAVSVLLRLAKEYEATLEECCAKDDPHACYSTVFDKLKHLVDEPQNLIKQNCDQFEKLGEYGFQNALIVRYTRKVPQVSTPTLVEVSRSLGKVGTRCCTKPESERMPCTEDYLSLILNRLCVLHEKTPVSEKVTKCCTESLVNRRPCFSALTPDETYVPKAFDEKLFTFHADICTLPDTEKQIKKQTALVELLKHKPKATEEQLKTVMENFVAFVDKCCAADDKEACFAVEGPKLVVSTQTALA

Compound: C=CCc1ccc(O)c(OC)c1 [EUG, eugenol]
- intrinsic fluorescence quenching (eugenol 1-50 mM): In the intrinsic fluorescence assay, it was evident that eugenol binds to BSA in a concentration dependent manner
